The values below come from article PMC6934184, “Selective DNA-PKcs inhibition extends the therapeutic index of localized radiotherapy and chemotherapy” (The Journal of Clinical Investigation, 2019).

The experiment addresses T1, PHKG1 (Homo sapiens, UniProt Q16816).
T1 construct: purchased Thermo Fisher Scientific (Life Technologies) SelectScreen
Nature of the experiment: SelectScreen Z'LYTE. The experiment is classed as biochemical. Put shortly:
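SelectScreen broad panel; activity (Z'LYTE, Adapta) plus binding formats. ATP: Km app for CSF1R Z'LYTE; 10 for CAMK1 Adapta. Readout = % per kinase.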

T1 sequence (Q16816 whole entry): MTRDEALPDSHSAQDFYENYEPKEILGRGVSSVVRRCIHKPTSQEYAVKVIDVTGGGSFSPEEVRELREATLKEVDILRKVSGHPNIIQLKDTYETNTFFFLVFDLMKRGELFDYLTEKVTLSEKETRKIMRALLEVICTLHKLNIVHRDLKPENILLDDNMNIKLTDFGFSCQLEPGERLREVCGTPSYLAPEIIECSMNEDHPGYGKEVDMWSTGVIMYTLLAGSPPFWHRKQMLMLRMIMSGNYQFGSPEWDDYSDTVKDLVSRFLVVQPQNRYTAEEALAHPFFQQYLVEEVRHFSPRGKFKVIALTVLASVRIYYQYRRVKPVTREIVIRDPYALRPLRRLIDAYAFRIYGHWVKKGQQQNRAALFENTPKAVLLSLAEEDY

For `CN(C(=O)CN1CCOCC1)c1ccc2sc3c(-c4cccc5c(=O)cc(N6CC7CCC(C6)O7)oc45)cccc3c2c1` [NU5455], the inhibition (usually the change of the read-out against control, counted positive when it falls) at 1 µM is -5%.
